Measurements: patent EP1148124A1 (priority 1999, dated 2000)
Like-named read-outs stand apart in the source and are kept apart here.

Tests used:
[1] = test system: aryl hydrocarbon receptor; test: Luciferase assay for clone selection (Example 2), firefly luciferase ligand responsive reporter gene
Ah receptor = test: Reporter assay (No. 2), ligand responsive reporter gene (firefly luciferase, pGV-Ya-XREx5), clone of Example 3; assay type: cell-based, mouse
[2] = Reporter assay (No. 2), cell number reporter gene (sea pansy luciferase, pRL-TK), clone of Example 3; assay type: cell-based; settings: mouse, hepa1c1c7 cells
Procedure: For the measured values of the amount of expression of the cell number reporter gene, a ratio is determined of the measured value in the test substance added group to the measured value in the only solvent added group (control group). When the ratio is, for example, in the range of 0.8 to 1.2, the measured value of the amount of expression of the ligand responsive reporter gene in the test substance added group is selected for evaluating the agonist or antagonist activity of the test substance against the ability of a ligand responsive transcriptional regulatory factor to promote transcription. When the ratio takes a small value such as smaller than 0.8, for example, it is possible that the test substance has cytotoxicity. In contrast, when the ratio takes a large value such as greater than 1.2, for example, it is possible that the test substance has activity against the transcriptional regulatory system of a gene without mediation of a ligand responsive transcriptional regulatory factor. However, the range of this ratio suitable for selecting the measured value of the amount of expression of the […] reporter gene may vary depending on certain properties of the present cells used and the conditions of measurement, and it is not limited to the above examples of numerical values.
Separately, the ligand responsive reporter gene containing plasmid pGV-Ya-XREx5 constructed in Example 1 was digested with Bam HI. Further, the cell number reporter gene containing plasmid pRL-TK (marketed by Toyo Ink) was digested with Bam HI, and the neomycin resistance (aminoglycoside phosphotransferase) gene containing plasmid pRc/RSV (available from INVITROGEN) was digested with Hind III. These three digested plasmids, i.e., Bam HI digested pGV-Ya-XREx5 (5.6 µg), Bam HI digested pRL-TK (5.6 µg), and Hind III digested pRc/RSV (1 µg), were mixed with 600 µl of αMEM medium (mixture C), while 72 µl of lipofectin (available from GIBCO-BRL) was mixed with 600 µl of αMEM medium (mixture D). After being left at room temperature for 30 minutes, mixtures C and D were combined together and left at room temperature for 10 minutes. After the Hepalclc7 cells cultured overnight as described above were then washed once with αMEM medium, there was added a half volume of a solution prepared by adding and mixing additional 10.8 ml of αMEM medium into the above mixture (C + D). Culturing of the resulting mixture was carried out for 5 hours. The medium was then replaced with 10% serum containing αMEM medium, followed by further culturing for 2 days. Subsequently, the cells were scratched from the petri dishes and collected, and the collected cells were suspended in 10% serum containing αMEM medium to have the total volume of 100 ml. The resulting cell suspension was plated on 96-well plates at a ratio of 100 µl/well. After these plates were cultured overnight, a medium prepared by dissolving G418 in 10% serum containing αMEM medium to have a concentration of 3.2 mg/ml was added at a ratio of 100 µl/well (G418 final concentration 1.6 mg/ml). Culturing was further continued, during which the medium was replaced with 10% serum containing αMEM medium containing 800 µg/ml G418 at a rate of once per 4 to 5 days. The volume of the medium was set at 200 µl/well. […] To the first plate, only DMSO was added (solvent control), and to the second plate, 3-MC dissolved in DMSO was added so that the final concentration of 3-MC in the second plate came to 2 µm per well. The first and second plates were then cultured overnight. In this case, the DMSO or the solution of 3-MC in DMSO was added so that the final concentration of DMSO in each well came to 0.04%. The third plate was further cultured as the master plate. From each well of each plate, to which DMSO or 3-MC had been added, the medium was removed, and the wells were washed twice with PBS(-). […]

[3] = final conc. 1 nM, about 6 hours
[4] = final conc. 10 nM, about 6 hours
[5] = final conc. 100 nM, about 6 hours
[6] = final conc. 1000 nM, about 6 hours
[7] = final conc. 10000 nM, about 6 hours
[8] = final conc. 50000 nM, about 6 hours

Structure (SMILES): Cc1ccc2cc3c(ccc4ccccc43)c3c2c1CC3 [3-MC, 3-methylcholanthrene]
- increase in the expression of the firefly luciferase gene by the addition of 3-MC [1]: about 10 times

Structure (SMILES): c1ccc2c(c1)cc1ccc3cccc4ccc2c1c34 [Benzo[a]pyrene, benzo[a]pyrene]
- Amount of luminescence by firefly luciferase (from pGV-Ya-XREx5) Measured value (Ah receptor; [3]): 0.414 x 10^2
- Amount of luminescence by firefly luciferase (from pGV-Ya-XREx5) Ratio (Ah receptor; final conc. 1 nM, about 6 hours, ratio to 0 nM): 1.7
- Amount of luminescence by firefly luciferase (from pGV-Ya-XREx5) Measured value (Ah receptor; [4]): 0.928 x 10^2
- Amount of luminescence by firefly luciferase (from pGV-Ya-XREx5) Ratio (Ah receptor; final conc. 10 nM, about 6 hours, ratio to 0 nM): 3.7
- Amount of luminescence by firefly luciferase (from pGV-Ya-XREx5) Measured value (Ah receptor; [5]): 1.72 x 10^2
- Amount of luminescence by firefly luciferase (from pGV-Ya-XREx5) Ratio (Ah receptor; final conc. 100 nM, about 6 hours, ratio to 0 nM): 6.9
- Amount of luminescence by firefly luciferase (from pGV-Ya-XREx5) Measured value (Ah receptor; [6]): 3.12 x 10^2
- Amount of luminescence by firefly luciferase (from pGV-Ya-XREx5) Ratio (Ah receptor; final conc. 1000 nM, about 6 hours, ratio to 0 nM): 12
- Amount of luminescence by firefly luciferase (from pGV-Ya-XREx5) Measured value (Ah receptor; [7]): 4.54 x 10^2
- Amount of luminescence by firefly luciferase (from pGV-Ya-XREx5) Ratio (Ah receptor; final conc. 10000 nM, about 6 hours, ratio to 0 nM): 18
- Amount of luminescence by firefly luciferase (from pGV-Ya-XREx5) Measured value (Ah receptor; [8]): 5.76 x 10^2
- Amount of luminescence by firefly luciferase (from pGV-Ya-XREx5) Ratio (Ah receptor; final conc. 50000 nM, about 6 hours, ratio to 0 nM): 23
- viability at 6 h, 0.001 µM ([2]; final conc. 1 nM, about 6 hours, ratio to 0 nM, read-out: Amount of luminescence by sea pansy luciferase (from pRL-TK) Ratio): 90%
- viability at 6 h, 0.01 µM ([2]; final conc. 10 nM, about 6 hours, ratio to 0 nM, read-out: Amount of luminescence by sea pansy luciferase (from pRL-TK) Ratio): 90%
- viability at 6 h, 0.1 µM ([2]; final conc. 100 nM, about 6 hours, ratio to 0 nM, read-out: Amount of luminescence by sea pansy luciferase (from pRL-TK) Ratio): 80%
- viability at 6 h, 1 µM ([2]; final conc. 1000 nM, about 6 hours, ratio to 0 nM, read-out: Amount of luminescence by sea pansy luciferase (from pRL-TK) Ratio): 90%
- viability at 6 h, 10 µM ([2]; final conc. 10000 nM, about 6 hours, ratio to 0 nM, read-out: Amount of luminescence by sea pansy luciferase (from pRL-TK) Ratio): 80%
- viability at 6 h, 50 µM ([2]; final conc. 50000 nM, about 6 hours, ratio to 0 nM, read-out: Amount of luminescence by sea pansy luciferase (from pRL-TK) Ratio): 80%

Structure (SMILES): C[C@@H]1C[C@H]2[C@@H]3CCC4=CC(=O)C=C[C@]4(C)[C@@]3(F)[C@@H](O)C[C@]2(C)[C@@]1(O)C(=O)CO [Dexamethasone, dexamethasone]
- Amount of luminescence by firefly luciferase (from pGV-Ya-XREx5) Measured value (Ah receptor; [3]): 3.71 x 10^2
- Amount of luminescence by firefly luciferase (from pGV-Ya-XREx5) Measured value (Ah receptor; [4]): 3.54 x 10^2
- Amount of luminescence by firefly luciferase (from pGV-Ya-XREx5) Measured value (Ah receptor; [5]): 3.39 x 10^2
- Amount of luminescence by firefly luciferase (from pGV-Ya-XREx5) Measured value (Ah receptor; [6]): 3.22 x 10^2
- Amount of luminescence by firefly luciferase (from pGV-Ya-XREx5) Measured value (Ah receptor; [7]): 3.53 x 10^2
- Amount of luminescence by firefly luciferase (from pGV-Ya-XREx5) Measured value (Ah receptor; [8]): 3.73 x 10^2
- Amount of luminescence by firefly luciferase (from pGV-Ya-XREx5) Ratio (Ah receptor; hepa1c1c7 cells, 6 h, 0.001 µM): 1.3
- Amount of luminescence by firefly luciferase (from pGV-Ya-XREx5) Ratio (Ah receptor; hepa1c1c7 cells, 6 h, 0.01 µM): 1.2
- Amount of luminescence by firefly luciferase (from pGV-Ya-XREx5) Ratio (Ah receptor; hepa1c1c7 cells, 6 h, 0.1 µM): 1.2
- Amount of luminescence by firefly luciferase (from pGV-Ya-XREx5) Ratio (Ah receptor; hepa1c1c7 cells, 6 h, 1 µM): 1.1
- Amount of luminescence by firefly luciferase (from pGV-Ya-XREx5) Ratio (Ah receptor; hepa1c1c7 cells, 6 h, 10 µM): 1.2
- Amount of luminescence by firefly luciferase (from pGV-Ya-XREx5) Ratio (Ah receptor; hepa1c1c7 cells, 6 h, 50 µM): 1.3
- viability at 6 h, 0.001 µM [2]: 100%
- viability at 6 h, 0.01 µM [2]: 100%
- viability at 6 h, 0.1 µM [2]: 90%
- viability at 6 h, 1 µM [2]: 80%
- viability at 6 h, 10 µM [2]: 100%
- viability at 6 h, 50 µM [2]: 110%
